Measured values: patent publication US6680025B2, “Device and method for photoactivation” (Cerus Corporation, priority 1989, dated 2004)
Marks after values point to notes of the source that are not given here.

Tests used:
[1] = tested on: calf thymus DNA; test: Covalent photobinding to calf thymus DNA (Example 38); type: binding; details: for actual concentration obtained empirically: nominal 100 μg/ml in calf thymus DNA/1×TE, counted after sitting overnight at room temperature
Description: FIG. 17 can again be referred to as a flow chart schematically showing the manner in which covalent binding was measured for the compounds synthesized by the methods of the present invention. ^3H-AMIP (3.1×10^5 cpm/μg), ^3H-AMDMIP (2.2×10^5 cpm/μg), and ^3H-MIP (2.1×10^5 cpm/μg) were added to 300 μl of calf thymus DNA (Sigma) in 1×TE buffer. All of the isopsoralen compounds were added at a nominal concentration of 100 μg/ml. However, actual concentrations obtained empirically (counted after sitting overnight at room temperature) were: ^3H-AMIP (105 μg/ml), ^3H-AMDMIP (115 μg/ml), and ^3H-MIP (<10 μg/ml).
To assess binding, three samples were prepared for each compound; two were irradiated (15 minutes at 25° C. with the CE-I device) while one was unirradiated as a control. Following irradiation, the samples were extracted four times with CHCl3 then precipitated twice. The final pellet was brought up in 2 ml of 1×TE buffer and resuspended by shaking at 40° C. overnight. 50 μl of each sample was then diluted to 0.5 mls with H2O. The concentration of DNA was determined by UV absorption (A260) and the amount of covalently bound isopsoralen (“adduct”) was determined by scintillation counting (3×100 μl aliquots). From these numbers, the following binding ratios (adducts: DNA base pair) were determined: […]

[2] = tested on: Reverse Transcriptase; test: Primer extension on monoadducted 71-mer, reverse transcriptase; type: biochemical; details: 37° C., 0, 5 or 15 minutes
[3] = Solubility of photoreactive compounds in 1×TE; type: physicochemical; details: excess compound heated 50-70° C., stirred at room temperature, filtered; optical density
Description: The solubilities of AMIP, AMDMIP, DMIP, MIP and isopsoralen (IP) were determined experimentally according to the scheme set forth in FIG. 5. To perform the solubility measurement, it was first necessary to establish known optical densities for a 1 μg/ml solution of each compound. These were determined by preparing either ethanolic or aqueous stocks of each compound at known concentrations in 1×TE, then measuring the optical density of each solution. From this information, the absorption of a 1 μg/ml solution was computed. Alternatively, the extinction coefficient may be thus determined and used in the same fashion. In this manner, the following absorption data was collected:
Following this step, undissolved compound was removed by filtration using a 0.2 u nylon-66 syringe filter (Arco LC13; Gelman). The concentration of the remaining soluble compound was then determined by measuring the optical density of the filtrate and computing the solubility from the known optical density of a 1 μg/ml solution of that compound. The solubility of the compounds was thus determined to be as follows: […]

[4] = target: Taq polymerase (Thermus aquaticus, UniProt P19821); test: Taq primer extension of 71-mer after random addition of compound or photoproduct; type: biochemical; details: for extension of 71-mer irradiated with compound: AMIP 200 μg/ml, AMDMIP 200 μg/ml, irradiated 15 minutes CE-I at 25° C.
Text: In this experiment, the ability of AMIP, AMDMIP and MIF to block replication of 71-mer is investigated by randomly adding each compound to the 71-mer. Of course, addition may only be random in the sense that one or more adducts may be formed with any one strand of nucleic acid. The actual placement of the isopsoralen may be governed by preferential binding at particular sites (e.g. A:T). In addition to blockage by random adducts, photoproducts of the various isopsoralens may be providing an inhibitory effect. No attempt to separate the effects of photoproduct from the effects of covalent adducts on the 71-mer template was made in this series of experiments.
In these experiments, the 71-mer template (10^−9 M) was primed with ^32P-SK-39 (10^−8) and extended with Taq polymerase in a total volume of […]. The dNTP concentration was 200 μM. In the control samples, the 71-mer, the primer, and the dNTPs were mixed in Taq buffer in a volume of 18 p1. These samples were initially denatured at 95° C. for 5 minutes, followed by equilibration at 55° C. for 3 minutes. Taq enzyme was then added (0.5 units) and the extension reaction was carried out for 5 minutes at 55° C. The reaction was stopped by making the solution 10 mM in EDTA. In another set of samples, the 71-mer in 10 μl was mixed with either AMIP (200 μg/ml), AMDMIP (200 μg/ml), or MIP (60 μg/ml). Half of these samples were irradiated for 15 minutes on the CE-I device at 25° C. The other half was kept in the dark as controls. These samples were then mixed with the primer and dNTPs as before, and were subjected to the same thermal profile and extension reactions as the samples that were described earlier. The results were examined by PAGE. The extended product bands were identified by autoradiography, excised and counted (data not shown). […]
71-mer was made up in Taq buffer. Samples were prepared as follows: 1) dark control samples were not subjected to activating light; 2) 10 μl samples of the 71-mer (2×10^−9 M) were irradiated in the presence of 200 μg/ml AMDMIP, and 3) 10 μl samples of a 200 μg/ml solution of AMDMIP were irradiated in the absence of the 71-mer target. All irradiations were carried out with the CE-I device at 25° C. After preparing the above samples, unirradiated AMDMIP was added to one set of the dark control samples. Another set of dark controls received irradiated AMDMIP. ^32P-SK-39 primer and dNTPs were then added to all samples and the volume was adjusted to 18 μl. These samples were denatured at 95° C. for 5 minutes, followed by equilibration at 55° C. for 3 minutes. Taq polymerase was then added and the extension reaction was carried out for 5 minutes. The reaction was stopped by bringing the samples to 10 mM in EDTA. The final concentrations of all reagents during the extension reactions were: […]

Sequence of Taq polymerase (P19821 whole entry): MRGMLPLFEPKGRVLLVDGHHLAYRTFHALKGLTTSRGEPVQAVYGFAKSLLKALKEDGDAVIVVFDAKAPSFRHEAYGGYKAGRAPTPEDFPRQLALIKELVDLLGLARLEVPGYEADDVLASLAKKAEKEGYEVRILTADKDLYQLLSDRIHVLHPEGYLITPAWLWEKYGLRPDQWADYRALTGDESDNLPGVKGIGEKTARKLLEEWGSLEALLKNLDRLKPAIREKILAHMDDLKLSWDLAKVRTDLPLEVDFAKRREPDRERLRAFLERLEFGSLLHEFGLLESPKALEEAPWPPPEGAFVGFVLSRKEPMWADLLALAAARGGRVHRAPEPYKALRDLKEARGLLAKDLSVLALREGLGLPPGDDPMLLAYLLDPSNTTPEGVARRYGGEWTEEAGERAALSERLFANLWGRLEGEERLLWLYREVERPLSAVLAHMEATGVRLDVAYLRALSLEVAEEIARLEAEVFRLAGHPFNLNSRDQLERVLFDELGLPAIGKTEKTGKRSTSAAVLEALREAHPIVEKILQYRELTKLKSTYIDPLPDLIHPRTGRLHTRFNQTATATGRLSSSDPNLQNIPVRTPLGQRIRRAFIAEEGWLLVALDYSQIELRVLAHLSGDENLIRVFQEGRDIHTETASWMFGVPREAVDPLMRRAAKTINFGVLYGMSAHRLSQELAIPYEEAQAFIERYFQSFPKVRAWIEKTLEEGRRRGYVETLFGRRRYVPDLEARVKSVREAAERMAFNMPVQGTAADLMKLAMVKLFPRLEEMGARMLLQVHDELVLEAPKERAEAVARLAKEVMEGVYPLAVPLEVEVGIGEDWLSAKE

Structure (SMILES) | actual concentration obtained empirically [1] [µg/mL] | modification density relative to that provided by AMDMIP ([1]; photobinding at the same concentration) [%] | block of primer extension by 71-mer monoadduct [2] | Solubility in 1 × TE [3] | extension of 71-mer irradiated with compound ([4]; MIP 60 μg/ml) | extension of 71-mer irradiated in the presence of AMDMIP ([4]; 200 μg/ml during irradiation, CE-I at 25° C.) | extension of 71-mer, dark control with unirradiated AMDMIP ([4]; AMDMIP 100 μg/ml final) | amount of full length product versus control samples ([4]; MIP 60 μg/ml, irradiated 15 minutes CE-I)
NCc1cc2occc2c2oc(=O)ccc12 [AMIP, 5-Aminomethylisopsoralen] | 105 | 43 | complete stops | 21,000 ug/ml | not extended at all | – | – | –
Cc1oc2ccc3c(C)cc(=O)oc3c2c1CN [AMDMIP, 4′-Aminomethyl-4,5′-dimethylisopsoralen] | 115 | – | complete stop | >22,700* ug/ml | not extended at all | no extension products at all | full length extension product | –
Cc1cc2occc2c2oc(=O)ccc12 [MIP, 5-Methylisopsoralen] | < 10 | – | complete stops | nd (nd = not detectable (solubility was less than 1 μg/ml)) | some full length extension product and a minor truncated product | – | – | half of that observed with the control samples
